Converted amounts (≈) assume the structure as drawn.
Legend:
Assay type in all cases: functional
Staphylococcus aureus [1] = test: Antibacterial activity against methicillin-resistant Staphylococcus aureus after overnight incubation by micro broth dilution analysis
[2] = test system: Staphylococcus epidermidis; test: Antibacterial activity against methicillin-resistant Staphylococcus epidermidis after overnight incubation by micro broth dilution analysis
[3] = test system: Staphylococcus haemolyticus; test: Antibacterial activity against methicillin-resistant Staphylococcus haemolyticus after overnight incubation by micro broth dilution analysis
Staphylococcus aureus [4] = test: Antibacterial activity against methicillin-resistant Staphylococcus aureus assessed as zone of inhibition at 50 ug/mL after 24 hrs by agar disc diffusion method; conditions: read-out: IZ
Staphylococcus aureus [5] = test: Antibacterial activity against methicillin-resistant Staphylococcus aureus assessed as zone of inhibition at 200 ng/mL after 24 hrs by agar disc diffusion method; conditions: read-out: IZ
Staphylococcus aureus [6] = test: Antibacterial activity against methicillin-resistant Staphylococcus aureus assessed as zone of inhibition at 400 ng/mL after 24 hrs by agar disc diffusion method; conditions: read-out: IZ
Staphylococcus aureus [7] = test: Antibacterial activity against methicillin-resistant Staphylococcus aureus assessed as zone of inhibition at 800 ng/mL after 24 hrs by agar disc diffusion method; conditions: read-out: IZ
[8] = test system: Staphylococcus epidermidis; test: Antibacterial activity against methicillin-resistant Staphylococcus epidermidis assessed as zone of inhibition at 20 ug/mL after 24 hrs by agar disc diffusion method; conditions: read-out: IZ
[9] = test system: Staphylococcus epidermidis; test: Antibacterial activity against methicillin-resistant Staphylococcus epidermidis assessed as zone of inhibition at 200 ng/mL after 24 hrs by agar disc diffusion method; conditions: read-out: IZ
[10] = test system: Staphylococcus epidermidis; test: Antibacterial activity against methicillin-resistant Staphylococcus epidermidis assessed as zone of inhibition at 400 ng/mL after 24 hrs by agar disc diffusion method; conditions: read-out: IZ
[11] = test system: Staphylococcus epidermidis; test: Antibacterial activity against methicillin-resistant Staphylococcus epidermidis assessed as zone of inhibition at 800 ng/mL after 24 hrs by agar disc diffusion method; conditions: read-out: IZ
[12] = test system: Staphylococcus haemolyticus; test: Antibacterial activity against methicillin-resistant Staphylococcus haemolyticus assessed as zone of inhibition at 50 ug/mL after 24 hrs by agar disc diffusion method; conditions: read-out: IZ

SMILES	MIC99 (Staphylococcus aureus [1])	MIC99 [2]	MIC99 [3]	zone of inhibition at 50 µg/mL (Staphylococcus aureus [4])	zone of inhibition at 0.2 µg/mL (Staphylococcus aureus [5])	zone of inhibition at 0.4 µg/mL (Staphylococcus aureus [6])	zone of inhibition at 0.8 µg/mL (Staphylococcus aureus [7])	zone of inhibition at 20 µg/mL [8]	zone of inhibition at 0.2 µg/mL [9]	zone of inhibition at 0.4 µg/mL [10]	zone of inhibition at 0.8 µg/mL [11]	zone of inhibition at 50 µg/mL [12]
O=S(=O)(F)/C=C/c1ccc(C(F)(F)F)cc1	0.815 µg/mL (≈ 3.21 µM)	0.812 µg/mL (≈ 3.19 µM)	60.2 µg/mL (≈ 237 µM)	9.1 mm	6.2 mm	10.1 mm	15.1 mm	12.1 mm	9.1 mm	10.1 mm	11.4 mm	3.5 mm
CC(=O)c1ccccc1/C=C/S(=O)(=O)F	16.1 µg/mL (≈ 70.7 µM)	0.816 µg/mL (≈ 3.58 µM)	50.2 µg/mL (≈ 220 µM)	8.2 mm	3.5 mm	4.1 mm	5.4 mm	10.2 mm	3.3 mm	4.2 mm	10.5 mm	4.1 mm
O=S(=O)(F)/C=C/c1ccc(O)cc1	16.1 µg/mL (≈ 79.4 µM)	45 µg/mL (≈ 223 µM)	57.1 µg/mL (≈ 283 µM)	10.2 mm	3.2 mm	4.3 mm	5.2 mm	4.5 mm	–	–	–	3.5 mm
O=S(=O)(F)/C=C/C=C/c1cccc(C(F)(F)F)c1	44.1 µg/mL (≈ 157 µM)	0.822 µg/mL (≈ 2.93 µM)	55 µg/mL (≈ 196 µM)	6.2 mm	–	–	–	8.5 mm	6.2 mm	7.1 mm	8.5 mm	4.5 mm
O=S(=O)(F)/C=C/c1ccc(Br)cc1	48.2 µg/mL (≈ 182 µM)	0.837 µg/mL (≈ 3.16 µM)	66.1 µg/mL (≈ 249 µM)	7.5 mm	–	–	–	7.3 mm	5.2 mm	6.2 mm	7.5 mm	6.1 mm
O=S(=O)(F)/C=C/c1ccc(OC(F)(F)F)cc1	40.2 µg/mL (≈ 149 µM)	0.81 µg/mL (≈ 3 µM)	61.2 µg/mL (≈ 227 µM)	6.1 mm	–	–	–	17.6 mm	7.1 mm	8.3 mm	10.4 mm	4.3 mm
O=S(=O)(F)/C=C/c1cc2ccccc2s1	55 µg/mL (≈ 227 µM)	70.2 µg/mL (≈ 290 µM)	63.1 µg/mL (≈ 261 µM)	8.2 mm	4.4 mm	6.3 mm	8.5 mm	5.2 mm	–	–	–	4.5 mm
O=S(=O)(F)/C=C/c1cccc(C(F)(F)F)c1	0.836 µg/mL (≈ 3.29 µM)	40.1 µg/mL (≈ 158 µM)	43.2 µg/mL (≈ 170 µM)	10.1 mm	4.1 mm	5.4 mm	7.7 mm	4.1 mm	–	–	–	4.2 mm
Cc1ccccc1/C=C/S(=O)(=O)F	0.849 µg/mL (≈ 4.24 µM)	17.2 µg/mL (≈ 85.8 µM)	54.1 µg/mL (≈ 270 µM)	15.4 mm	4.2 mm	5.1 mm	6.4 mm	15.3 mm	2.2 mm	3.4 mm	4.5 mm	5.4 mm
O=S(=O)(F)/C=C/c1ccccc1O	0.853 µg/mL (≈ 4.22 µM)	58 µg/mL (≈ 287 µM)	61 µg/mL (≈ 302 µM)	12.1 mm	3.5 mm	5.2 mm	7.7 mm	6.2 mm	–	–	–	3.5 mm
O=S(=O)(F)/C=C/c1cc(O)cc(O)c1	17 µg/mL (≈ 78 µM)	0.846 µg/mL (≈ 3.88 µM)	49 µg/mL (≈ 225 µM)	12.2 mm	3.5 mm	4.2 mm	4.5 mm	9.3 mm	3.1 mm	4.2 mm	6.2 mm	4.2 mm
COc1cc(/C=C/S(=O)(=O)F)cc(OC)c1	0.81 µg/mL (≈ 3.29 µM)	57.1 µg/mL (≈ 232 µM)	50 µg/mL (≈ 203 µM)	18.1 mm	1.2 mm	13.1 mm	15.1 mm	5.3 mm	–	–	–	4.5 mm
Cc1ccc(/C=C/S(=O)(=O)F)c(C)c1	43.1 µg/mL (≈ 201 µM)	0.813 µg/mL (≈ 3.79 µM)	43.3 µg/mL (≈ 202 µM)	6.5 mm	–	–	–	10.7 mm	2.5 mm	6.2 mm	11.1 mm	3.5 mm
O=S(=O)(F)/C=C/c1ccc(F)cc1F	16.1 µg/mL (≈ 72.3 µM)	47 µg/mL (≈ 212 µM)	55.1 µg/mL (≈ 248 µM)	14.1 mm	3.1 mm	3.5 mm	4.1 mm	3.7 mm	–	–	–	3.5 mm
O=S(=O)(F)/C=C/c1ccc(F)cc1	16.1 µg/mL (≈ 79 µM)	61.1 µg/mL (≈ 299 µM)	57.3 µg/mL (≈ 281 µM)	10.1 mm	3.5 mm	4.1 mm	4.5 mm	5.2 mm	–	–	–	4.2 mm
O=S(=O)(F)/C=C/C=C/c1cccc(F)c1	48 µg/mL (≈ 209 µM)	0.82 µg/mL (≈ 3.56 µM)	50.1 µg/mL (≈ 218 µM)	7.2 mm	–	–	–	8.3 mm	4.2 mm	6.1 mm	8.3 mm	5.5 mm
O=S(=O)(F)/C=C/c1cccc(F)c1	15.2 µg/mL (≈ 74.3 µM)	72.3 µg/mL (≈ 354 µM)	44.1 µg/mL (≈ 216 µM)	9.1 mm	3.5 mm	4.4 mm	5.1 mm	3.5 mm	–	–	–	4.2 mm
O=S(=O)(F)/C=C/c1cccc2c1sc1ccccc12	48.2 µg/mL (≈ 165 µM)	55 µg/mL (≈ 188 µM)	66 µg/mL (≈ 226 µM)	8.1 mm	3.5 mm	4.4 mm	4.5 mm	4.1 mm	–	–	–	4.5 mm
COc1cc(/C=C/C=C/S(=O)(=O)F)cc(OC)c1	61.1 µg/mL (≈ 225 µM)	57.1 µg/mL (≈ 210 µM)	56.6 µg/mL (≈ 208 µM)	16.1 mm	5.2 mm	7.1 mm	8.5 mm	4.1 mm	–	–	–	4.2 mm
O=S(=O)(F)/C=C/c1ccsc1	16.6 µg/mL (≈ 86.4 µM)	66.1 µg/mL (≈ 344 µM)	48 µg/mL (≈ 250 µM)	8.2 mm	3.2 mm	4.2 mm	4.5 mm	8.5 mm	–	–	–	4.52 mm
O=Cc1ccccc1/C=C/S(=O)(=O)F	47.2 µg/mL (≈ 220 µM)	52.1 µg/mL (≈ 243 µM)	44.1 µg/mL (≈ 206 µM)	6.1 mm	–	–	–	4.3 mm	–	–	–	4.2 mm

— ChEMBL document CHEMBL4382233, “Discovery of novel arylethenesulfonyl fluorides as potential candidates against methicillin-resistant of Staphylococcus aureus (MRSA) for overcoming multidrug resistance of bacterial infections” (2019)
